{"source": "patent US5385842A", "about": "“Anthraquinones as inhibitors of sulfide production from sulfate-reducing bacteria” (E. I. Du Pont de Nemours and Company, priority 1993, dated 1995)", "note": "Counter-ions that a name gives are not always drawn."}
{"tested_on": "Desulfovibrio desulfuricans G100A", "assay": "microbe, parasite or virus in culture", "type": "cell-based", "conditions": "not given"}
{"compound": "Nc1cccc2c1C(=O)c1ccccc1C2=O", "note": "[1-Aminoanthraquinone]", "inhibition of sulfide production (in words)": "inhibited sulfide formation"}
{"tested_on": "Desulfovibrio desulfuricans G100A", "assay": "microbe, parasite or virus in culture", "type": "cell-based", "conditions": "10 ppm", "units": {"% Inhib. (inhibition of sulfide production)": "%"}}
{"compound": "1,1'-Iminobis[4-amino]9,10-anthracenedione, sulfonated [Acid black 48]", "% Inhib. (inhibition of sulfide production)": 13.8}
{"tested_on": "Desulfovibrio desulfuricans G100A", "assay": "microbe, parasite or virus in culture", "type": "cell-based", "conditions": "Desulfovibrio desulfuricans, G100A, read-out: % Inhib. (inhibition of sulfide production)", "units": {"inhibition at 10 ppm": "%", "inhibition at 30 ppm": "%", "inhibition at 10 µg/mL": "%"}}
{"compound": "O=C1c2ccccc2C(=O)c2c1cccc2N(NS(=O)(=O)O)S(=O)(=O)O", "note": "[1-(9,10-Dihydro-9,10-dioxo-1-anthracenyl)-1,2-hydrazinedisulfonic acid, di Na salt]", "inhibition at 10 ppm": 10}
{"compound": "Cc1cc(O)c2c(c1)C(=O)c1c(O)ccc(O)c1C2=O", "note": "[Helminthosporin, 1,5,8-Trihydroxy-3-methyl-9,10-anthracenedione]", "inhibition at 10 ppm": 31.3}
{"compound": "Nc1cccc2c1C(=O)c1cc(Cl)c(Cl)cc1C2=O", "note": "[1-Amino-6,7-dichloroanthraquinone]", "inhibition at 30 ppm": 22.9}
{"compound": "CN(C)CCOc1ccc2c(c1)C(=O)c1ccc(OCCN(C)C)cc1C2=O", "note": "[Tilorone analog R11,043DA, 2,6-Bis[2-(dimethylamino)ethoxy]-9,10-anthracenedione]", "inhibition at 10 ppm": 98.7}
{"compound": "CNc1ccc(N)c2c1C(=O)c1ccccc1C2=O", "note": "[1-Amino-4-(methylamino)anthraquinone]", "inhibition at 30 ppm": 0}
{"compound": "Nc1ccc(N)c2c1C(=O)c1c(N)ccc(N)c1C2=O", "note": "[Disperse blue 1, 1,4,5,8-Tetraaminoanthraquinone]", "inhibition at 30 ppm": 3.9}
{"compound": "Nc1ccc(O)c2c1C(=O)c1c(O)ccc(N)c1C2=O", "note": "[1,5-Diamino-4,8-dihydroxyanthraquinone]", "inhibition at 30 ppm": 2.6}
{"compound": "NCCSc1cc(O)c2c(c1N)C(=O)c1ccccc1C2=O", "note": "[1-Amino-2-(2-aminoethylthio)-4-hydroxyanthraquinone]", "inhibition at 30 ppm": 24.7}
{"compound": "O=C1c2ccc3nc(-c4ccccc4)sc3c2C(=O)c2ccc3nc(-c4ccccc4)sc3c21", "note": "[Indanthrene yellow GCN, 2,8-Diphenyl-anthra[2,1-d:6,5-d']bisthiazole-6,12-dione]", "inhibition at 10 ppm": 15.6}
{"compound": "Oc1cccc2cc3cccc(O)c3c(O)c12", "note": "[1,8-Dihydroxyanthranol, 1,8-Dihydroxy-9-anthranol]", "inhibition at 30 ppm": 88.3}
{"compound": "Cc1cc(Br)c2c(c1N)C(=O)c1ccccc1C2=O", "note": "[1-Amino-4-bromo-2-methylanthraquinone]", "inhibition at 10 µg/mL": 8}
{"compound": "Cc1ccc(Nc2ccc(Nc3ccc(C)cc3)c3c2C(=O)c2cccc(O)c2C3=O)cc1", "note": "[Sudan green, 5-hydroxy-1,4-bis[(4-methylphenyl)amino]-9,10-anthracenedione]", "inhibition at 30 ppm": 0}
{"compound": "Cc1cc(C)c(S(=O)(=O)O)c(C)c1Nc1ccc(Nc2c(C)cc(C)c(S(=O)(=O)O)c2C)c2c1C(=O)c1ccccc1C2=O", "note": "[Acid blue 80, 3,3'-[(9,10-Dihydro-9,10-dioxo-1,4-anthracenediyl)adiimino]bis[2,4,6-trimethylbenzenesulfonicacid], di Na salt]", "inhibition at 10 ppm": 0}
{"compound": "Cc1ccc(Nc2ccc(Nc3ccc(C)cc3S(=O)(=O)O)c3c2C(=O)c2c(O)ccc(O)c2C3=O)c(S(=O)(=O)O)c1", "note": "[alizarine viridine, 2,2'-[(9,10-Dihydro-5,8-dihydroxy-9,10-dioxo-1,4-anthracenediyl)diimino]bis[5-methyl]benzenesulfonic acid]", "inhibition at 30 ppm": 2.6}
{"compound": "Nc1c(Br)cc(Br)c2c1C(=O)c1ccccc1C2=O", "note": "[1-Amino-2,4-dibromoanthraquinone]", "inhibition at 10 ppm": 44.6}
{"compound": "CCNc1ccc(NCC)c2c1C(=O)c1ccccc1C2=O", "note": "[Sudan blue, 1,4-Bis(ethylamino)-9,10-anthracenedione]", "inhibition at 30 ppm": 1.3}
{"compound": "Cc1ccc2c(c1N)C(=O)c1ccccc1C2=O", "note": "[Disperse orange 11, 1-Amino-2-methylanthraquinone]", "inhibition at 30 ppm": 5.2}
{"compound": "CNc1ccc(Nc2ccc(C)cc2S(=O)(=O)O)c2c1C(=O)c1ccccc1C2=O", "note": "[Alizarine astrol B-CF, 2-[[9,10-Dihydro-4-(methylamino)-9,10-dioxo-1-anthracenyl]amino]-5-methyl-benzenesulfonic acid, monosodium salt]", "inhibition at 10 ppm": 2.6}
{"compound": "O=C1c2ccccc2C(=O)c2c(O)cccc21", "note": "[1-Hydroxyanthraquinone]", "inhibition at 10 ppm": 59.3}
{"compound": "CN(C)Cc1ccc(Nc2ccc(N)c3c2C(=O)c2ccccc2C3=O)cc1", "note": "[Basic Blue 47, 1-Amino-4-[4-[(dimethylamino)methyl]phenyl]amino-9,10-anthracenedione]", "inhibition at 10 ppm": 37.2}
{"compound": "O=C1c2cccc(O)c2C(=O)c2cccc(O)c21", "note": "[1,5-Dihydroxyanthraquinone]", "inhibition at 10 ppm": 31}
{"compound": "O=C1c2ccccc2C(=O)c2cc(S(=O)(=O)O)ccc21", "note": "[Anthraquinone-2-sulfonic acid sodium salt monohydrate]", "inhibition at 10 ppm": 17}
{"compound": "Nc1cc2c(cc1Cl)C(=O)c1ccccc1C2=O", "note": "[2-Amino-3-chloroanthraquinone]", "inhibition at 30 ppm": 3.9}
{"compound": "COc1cc(O)c2c(c1)C(=O)c1cc(C)cc(O)c1C2=O", "note": "[Physcion, 1,8-Dihydroxy-3-methoxy-6-methyl-9,10-anthracenedione]", "inhibition at 10 ppm": 34.4}
{"compound": "Nc1c(S(=O)(=O)O)cc(Nc2ccc(S(=O)(=O)O)c(Nc3nc(Cl)nc(Nc4cccc(S(=O)(=O)O)c4)n3)c2)c2c1C(=O)c1ccccc1C2=O", "note": "[Reactive blue 5, 1-Amino-4[[3-[[4-chloro-6-[(3-sulfophenyl)amino]-1,3,5-triazin-2-yl]amino]-4-sulfophenyl]amino]-9,10-dihydro-9,10-dioxo-2-anthracenesulfonic acid]", "inhibition at 10 ppm": 0}
{"compound": "O=c1c2ccccc2c(=O)c2c1cc(Cl)c1[nH]c3c([nH]c12)c(Cl)cc1c(=O)c2ccccc2c(=O)c13", "note": "[7,16-Dichloroindanthrone, 7,16-Dichloro-6,15-dihydro-5,9,14,18-anthrazinetetrone]", "inhibition at 10 ppm": 43.8}
{"compound": "O=C1c2ccccc2C(=O)c2c1cc(O)c(O)c2O", "note": "[Anthragallol, 1,2,3-trihydroxyanthraquinone]", "inhibition at 30 ppm": 2.6}
{"compound": "Nc1cc(S(=O)(=O)O)c(O)c2c1C(=O)c1c(O)c(S(=O)(=O)O)cc(N)c1C2=O", "note": "[Acid blue 45, 4,8-Diamino-9,10-dihydro-1,5-dihydroxy-9,10-dioxo-2,6-anthracenedisulfonic acid, di Na salt]", "inhibition at 10 ppm": 0}
{"compound": "Cc1c(C(=O)O)c(O)cc2c1C(=O)c1c(O)c([C@@H]3O[C@H](CO)[C@@H](O)[C@H](O)[C@H]3O)c(O)c(O)c1C2=O", "note": "[Carminic acid, 7-β-D-Glucopyranosyl-9,10-dihydro-3,5,6,8-tetra-hydroxy-1-methyl-9,10-dioxo-2-anthracene-carboxylic acid]", "inhibition at 10 µg/mL": 0}
{"compound": "COc1cccc2c1C(=O)c1c(O)c3c(c(O)c1C2=O)C[C@@](O)(C(=O)CO)C[C@@H]3O[C@H]1C[C@H](N)[C@H](O)[C@H](C)O1", "note": "[Adriamycin hydrochloride, 10-[(3-Amino-2,3,6-trideoxy-alpha-L-lyxo-hexopyranosyl)oxy]-7,8,9,10-tetrahydro-6,8,11-trihydroxy-8-(hydroxyacetyl)-1-methoxy-5,12-naphthacenedione hydrochloride, reference compound]", "inhibition at 30 ppm": 55.7}
{"compound": "C=CS(=O)(=O)c1cccc(Nc2cc(S(=O)(=O)O)c(N)c3c2C(=O)c2ccccc2C3=O)c1", "note": "[Acid blue 215, 1-Amino-4-[[3-(ethenylsulfonyl)phenyl]-9,10-dihydro-9,10-dioxo]-2-anthracene sulfonic acid, monosodium salt]", "inhibition at 10 ppm": 19.7}
{"compound": "O=C1c2ccccc2C(=O)c2c(Nc3cccc4c3C(=O)c3ccccc3C4=O)cccc21", "note": "[Dianthrimide, 1,1'-Iminobis-9,10-anthracenedione]", "inhibition at 30 ppm": 2.6}
{"compound": "Nc1ccc2c(c1)C(=O)c1ccc(N)cc1C2=O", "note": "[2,6-Diaminoanthraquinone]", "inhibition at 10 ppm": 27.2}
{"compound": "O=C(O)c1cc2c(cc1C(=O)O)C(=O)c1ccccc1C2=O", "note": "[9,10-Dihydro-9,10-dioxo-2,3-anthracenedicarboxylic acid]", "inhibition at 30 ppm": 10}
{"compound": "O=C1c2cccc(Cl)c2C(=O)c2cccc(Cl)c21", "note": "[1,5-Dichloroanthraquinone]", "inhibition at 30 ppm": 100}
{"compound": "Cc1ccc(Nc2ccc(O)c3c2C(=O)c2ccccc2C3=O)cc1", "note": "[1-Hydroxy-4-(p-toluidino)-anthraquinone, 1-Hydroxy-4-[(4-methylphenyl)amino]-9,10-anthracene-dione]", "inhibition at 30 ppm": 3.9}
{"compound": "Cc1cc2c(cc1Br)C(=O)c1ccccc1C2=O", "note": "[2-Bromo-3-methylanthraquinone]", "inhibition at 30 ppm": 26}
{"compound": "O=C1c2ccccc2C(=O)c2c1ccc1ccccc21", "note": "[Benz[a]anthracene-7,12-dione]", "inhibition at 30 ppm": 52.9}
{"compound": "COc1cc2c(cc1C)C(=O)c1ccccc1C2=O", "note": "[2-Methoxy-3-methyl-9,10-anthracenedione]", "inhibition at 30 ppm": 5}
{"compound": "COc1cc(NS(=O)(=O)c2ccc(C)cc2)c2c(c1N)C(=O)c1ccccc1C2=O", "note": "[N-(4-Amino-9,10-dihydro-3-methoxy-9,10-dioxo-1-anthracenyl)-4-methylbenzenesulfonamide]", "inhibition at 30 ppm": 4.3}
{"compound": "Nc1ccc(NC(=O)c2ccccc2)c2c1C(=O)c1ccccc1C2=O", "note": "[1-Amino-4-benzamidoanthraquinone, N-(4-Amino-9,10-dihydro-9,10-dioxo-1-anthracenyl)-benzamide]", "inhibition at 30 ppm": 0}
{"compound": "O=C(Nc1cccc2c1C(=O)c1cccc(Cl)c1C2=O)c1ccccc1", "note": "[1-Benzamido-5-chloroanthraquinone, N-(5-Chloro-9,10-dihydro-9,10-dioxo-1-anthracenyl)-benzamide]", "inhibition at 30 ppm": 10.4}
{"compound": "CCC(=O)Nc1ccc2c(c1)C(=O)c1ccccc1C2=O", "note": "[2-Propionamidoanthraquinone]", "inhibition at 30 ppm": 10.4}
{"compound": "O=C(O)c1ccccc1Nc1cccc2c1C(=O)c1cccc(Nc3ccccc3C(=O)O)c1C2=O", "note": "[Acridylic acid, 1,5-Bis(2-carboxyanilino)-9,10-anthracenedione]", "inhibition at 10 ppm": 33.5}
{"compound": "Nc1cccc2c1C(=O)c1ccccc1C2=O", "note": "[1-Aminoanthraquinone]", "inhibition at 10 ppm": 28.4}
{"compound": "Cc1ccc(S(=O)(=O)Nc2cc(S(=O)(=O)O)c(N)c3c2C(=O)c2ccccc2C3=O)cc1", "note": "[1-Amino-9,10-dihydro-4[[(4-methylphenyl)sulfonyl]-amino]-9,10-dioxo-2-anthracenesulfonic acid, Na salt]", "inhibition at 10 ppm": 3.9}
{"compound": "O=C1c2c(O)c(O)c(S(=O)(=O)O)c(O)c2C(=O)c2c(O)c(O)c(S(=O)(=O)O)c(O)c21", "note": "[Acid alizarin blue BB, 9,10-Dihydro-1,3,4,5,7,8-hexahydroxy-9,10-dioxo-2,6-anthracenedisulfonic acid]", "inhibition at 30 ppm": 0}
{"tested_on": "Desulfovibrio desulfuricans G100A", "assay": "microbe, parasite or virus in culture", "type": "cell-based", "conditions": "Table III, Example 3", "units": {"% inhibition of sulfide formation": "%"}}
{"compound": "Nc1cccc2c1C(=O)c1ccccc1C2=O", "note": "[1-Aminoanthraquinone]", "% inhibition of sulfide formation": 72}
